According to patent US8536139B2, “Compositions comprising lipoteichoic acid for use in treating pleural effusion or pneumothorax” (ISIS Innovation Limited, priority 2007, dated 2013):
Where “and” joins values, the source holds several entries; their conditions need not be identical. Identical values can stand only once.

Experiments:
Type in all cases: in vivo, human
[1] = system: malignant pleural effusion; experiment: Long-term pleural fluid control (pleurodesis success, need for late therapeutic drainage)
Procedure: Over the next 7 days (days 7-14), daily pleural fluid volume drainage and pleural fluid cytology for malignant cells was performed unless pleural fluid flow ceased. On day 14, the intra-pleural catheter was flushed and closed (but left in situ) and not used again for the duration of the study unless recurrent pleural fluid caused breathlessness requiring treatment by fluid drainage.
(§1) Patient symptoms, performance status, radiographic pleural fluid recurrence (chest radiograph), adverse events and the clinical need for further pleural fluid drainage was assessed on days 22, 43, 64, 85. Where further fluid drainage was required, the time from the administration of LTA-T to first drainage was recorded. Those with recurrent pleural fluid were offered sterile talc pleurodesis (as standard care). All patients were followed up to death.
Long-term pleural fluid control was assessed by noting which patients required late therapeutic (>500 mls) pleural fluid drainage from their indwelling catheter in association with symptoms (excluding the subject not capable of achieving pleurodesis due to trapped lung). […] Between day 14 (when the indwelling catheter was first locked closed) and 1 month, 3 further patients received one therapeutic fluid drainage (pleurodesis success from day 14 9/12 (75%)). In those patients receiving a dose >750 mcg of intrapleural LTA-T, 6/7 required no therapeutic drainage at 1 month (86% pleurodesis success rate).

[2] = system: adults with histocytologically proven malignant pleural effusion; experiment: Peripheral blood white cell count change 24 hours after intrapleural administration; details: 7 subjects receiving >750 mcg; p=0.016, paired t-test
Procedure: FIG. 3 illustrates the change in peripheral white cell count 24 hours after administration of intrapleural saline control or LTA-T, in all patients (FIG. 3a) and patients receiving 750 mcg LTA-T or more (FIG. 3b). Individual results are shown and mean and SD data for each group.
(§2) After informed consent, an indwelling pleural catheter (PleurX, Denver, Colo.) was placed in the pleural effusion and the pleural space fully drained. Markers of toxicity (clinical symptoms, blood parameters, performance status) were recorded daily on the first 14 days of the study and at intervals thereafter (FIG. 1).
(§3) Changes in continuous variables were compared to baseline using a paired t-test (SPSS version 12.0).

[3] = system: adults with histocytologically proven malignant pleural effusion; experiment: Alveolar to arterial gradient in the partial pressure of oxygen (arterial blood gases breathing air)
From the text: Arterial blood gases breathing air were taken on days 1 and 3 of the first week (pre and post control saline), and on days 7 and 9 (pre and post LTA-T) to identify any impaired gas exchange (which is a problem with talc pleurodesis). The efficiency of lung oxygen exchange was quantified from the change in the alveolar to arterial gradient for the partial pressure of oxygen calculated from these blood gas samples, using standard methods.
as §3

[4] = system: adults with histocytologically proven malignant pleural effusion; experiment: Phase I/IIa trial of intrapleural LTA-T: dose escalation and toxicity
From the text: The study was a phase I/IIa toxicity/non-randomised “proof of concept” efficacy trial. The protocol included administration of an intrapleural saline control followed by seven days pleural fluid production measurement prior to the administration of LTA-T to allow the assessment of any side-effects from LTA-T administration, and both acute pleural fluid production changes and the frequency of long-term pleurodesis efficacy after intrapleural LTA-T (see FIG. 1).
The subjects were adults (aged≧18) with histocytologically proven malignant pleural effusion requiring symptomatic treatment.
as §2
After initial complete fluid drainage, 30 mls intra-pleural saline (saline control) was administered (day 1). The daily pleural fluid drainage was then recorded for seven days to quantify the rate of production of pleural fluid. On day seven, subjects received a single intra-pleural injection of LTA-T, according to the dosing schedule (table 1). The starting dose was 250 mcg. Patients remained in hospital for one night following LTA-T administration in a respiratory unit equipped for the care of acute respiratory failure to permit immediate adverse event monitoring.
as §1

Substance: lipoteichoic acid T [LTA-T]
- Pleurodesis success from day 14 ([1]; 9/12, day 14 to 1 month, where pleurodesis technically achievable): 75%
- Patients not requiring any further therapeutic pleural drainage beyond 1 month from trial entry ([1]; 12/13 patients, trapped lung subject excluded): 92%
- Pleurodesis outcome ([1]; dose of 750 mcg to 1000 mcg): effective pleurodesis
- Pleurodesis success rate (no therapeutic drainage at 1 month) ([1]; patients receiving >750 mcg intrapleural, 6/7): 86%
- Difference in WCC change, LTA-T vs saline [2]: 4.70 (3.77)
- Alveolar to arterial gradient for the partial pressure of oxygen, post LTA-T, mean (SD) ([3]; day 9, mean baseline (SD) 4.24 (2.92) kPa): 4.88 (1.80) kPa
- Blood oxygen levels ([3]; dose of 750 mcg to 1000 mcg): no evidence of depressed blood oxygen levels
- Change in the alveolar to arterial gradient versus saline control ([3]; following LTA-T compared with saline control): similar
- Toxicity at the therapeutic dose ([4]; 750-1500 mcg intrapleural): mild with no consistent side effect profile
- Pain ([4]; dose of 750 mcg to 1000 mcg): almost no pain
- Side effects ([4]; individual patients, single intrapleural dose 250 mcg): mild fever and Nil and Mild chest pain 2 hours post administration
- Side effects ([4]; individual patients, single intrapleural dose 375 mcg): Nil (2×) and Mild headache and light headed 4 hours
- Side effects ([4]; individual patients, single intrapleural dose 750 mcg): Nil and Mild back pain on inspiration after LTA-T, and Nausea, vomiting and pyrexia for 3 days
- Side effects ([4]; individual patients, single intrapleural dose 1500 mcg): Nil
- Raised inflammatory markers (CRP) ([4]; patient 10, 750 mcg, post LTA-T administration): inflammatory markers (CRP > 285).
- Side effects ([4]; patient 14, single intrapleural dose 3000 mcg): systemic inflammatory reaction
- Blood parameter, performance status or respiratory status toxicities ([4]; whole trial): No blood parameter, performance status or respiratory status toxicities were seen
